Values joined by “and” are separate entries in the source; they are usually repeats but may differ in a detail not shown here. Equal entries are not always repeated. “Also recorded” adds a separate entry of the source.
Columns and labels:
Format in all cases: in vivo, mouse
[1] = system: Pten^pc−/−; Pml^pc−/− prostate tumors; test: Flow cytometry of immune infiltrate in treated Pten^pc−/−; Pml^pc−/− prostate tumors; conditions: Pml^pc−/− prostate tumors after treatment
Description: (§1) Mice were allocated at random to experimental groups and studies were performed in an unblended manner. For treatment with the CXCR2 antagonist, SB225002 (Cayman Chemical #13336) was dissolved in DMSO (10 mg/ml) and diluted in vehicle (0.9% NaCl, 0.3% Tween 80) for in vivo administration. Mice (4 months of age) were treated daily for 10 days by intraperitoneal injection (5 mg/kg) and prostate tumor tissue (anterior lobes) was subjected to Flow Cytometry and histological analysis. For MRI analysis, mice (4 months of age) were treated daily for 21 days (Pten^pc−/−; Zbtb7a^pc−/−), for 14 days (Pten^pc−/−; Trp53^pc−/−) or for 14 days (Pten^pc−/−; Pml^pc−/−) by intraperitoneal injection (5 mg/kg). For depletion of Gr-1+/CD11b+ cells, Ly6G-depletion antibody (1A8, BioXcell) and control Rat IgG2a antibody (BioXcell) were diluted in phosphate-buffered saline (PBS) for in vivo administration. Mice (4 months of age) were treated every other day for 10 days by intraperitoneal injection (200-300 μg/mouse). […] Tumor volume quantification was performed by using VivoQuant and Image J software. […]
(§2) For Flow Cytometry, spleen and lymph node single cell suspensions were prepared by mashing the tissue in 2% FBS/PBS. […] All staining mixtures were analyzed on a BD LSR II flow cytometer (Becton Dickinson). Resulting profiles were further processed and analyzed using the FlowJo 8.7 software.

[2] = system: Pten^pc−/−; Pml^pc−/− prostate tumors; test: Tumor growth by MRI in Pten^pc−/−; Pml^pc−/− mice under CXCR2 antagonist treatment; conditions: for tumor volume: Pten-Pml, individual mice; for tumor growth: Pten^pc−/−, Pml^pc−/− mice, versus vehicle
Description: (§3) Mice were allocated at random to experimental groups and studies were performed in an unblended manner. For treatment with the CXCR2 antagonist, SB225002 (Cayman Chemical #13336) was dissolved in DMSO (10 mg/ml) and diluted in vehicle (0.9% NaCl, 0.3% Tween 80) for in vivo administration. Mice (4 months of age) were treated daily for 10 days by intraperitoneal injection (5 mg/kg) and prostate tumor tissue (anterior lobes) was subjected to Flow Cytometry and histological analysis. For MRI analysis, mice (4 months of age) were treated daily for 21 days (Pten^pc−/−; Zbtb7a^pc−/−), for 14 days (Pten^pc−/−; Trp53^pc−/−) or for 14 days (Pten^pc−/−; Pml^pc−/−) by intraperitoneal injection (5 mg/kg). For depletion of Gr-1+/CD11b+ cells, Ly6G-depletion antibody (1A8, BioXcell) and control Rat IgG2a antibody (BioXcell) were diluted in phosphate-buffered saline (PBS) for in vivo administration. Mice (4 months of age) were treated every other day for 10 days by intraperitoneal injection (200-300 μg/mouse). InVivoMAb anti-mouse Ly6G/Ly6C (Gr-1) antibody, clone RB6-8C5 (BE0075, BioXcell), and control Rat IgG2b antibody (BE0090, BioXcell) were diluted in PBS and Pten^pc−/−; Trp53^pc−/− mice were treated every other day for 14 days by intraperitoneal injection (200 μg/mouse). For neutralization of CXCL5, anti-Mouse CXCL5 antibody (Leinco Technologies) and control Rat IgG2a antibody (BioXcell) were diluted in PBS and injected every other day for 21 days by intraperitoneal injection (20 μg/mouse). Tumor volume quantification was performed by using VivoQuant and Image J software. All mouse prostate MRI imaging analysis was performed at Small Animal Imaging Core at BIDMC and acquired on an ASPECT Model M2 1T tabletop scanner.

[3] = system: Pten^pc−/−; Trp53^pc−/− prostate tumors; test: Tumor growth by MRI in Pten^pc−/−; Trp53^pc−/− mice under drug or antibody treatment; conditions: for tumor volume: individual mice
Description: as §3

[4] = system: Pten^pc−/−; Zbtb7a^pc−/− prostate tumors; test: Flow cytometry of immune infiltrate in treated Pten^pc−/−; Zbtb7a^pc−/− prostate tumors; conditions: Zbtb7a^pc−/− prostate tumors after treatment
Description: as §1, §2

[5] = system: Pten^pc−/−; Zbtb7a^pc−/− prostate tumors; test: Tumor growth by MRI in Pten^pc−/−; Zbtb7a^pc−/− mice under drug or antibody treatment; conditions: for tumor volume: Pten-Zbtb7a, individual mice
Description: as §3

[6] = CXCR2i (SB225002 5 mg/kg i.p. daily), row 0 = day 0 baseline, MRI

Structure (SMILES): O=C(Nc1ccc([N+](=O)[O-])cc1O)Nc1ccccc1Br [SB225002]
- intra-tumoral Gr-1+/CD11b+ cells [1]: decrease of Gr-1+/CD11b+ cells
- tumor volume [2, 6]: 45.996 mm3 and 37.426 mm3
- tumor volume ([2]; CXCR2i, row 1 (weekly MRI)): 53.662 mm3 and 43.164 mm3
- tumor volume ([2]; CXCR2i, row 2 (weekly MRI, 2 weeks on treatment)): 56.567 mm3 and 45.972 mm3
- tumor growth [2]: did not show any significant response
- tumor growth ([2]; listed as CXCR2i): did not respond
- tumor volume ([3]; Pten-Trp53, CXCR2i (SB225002 5 mg/kg i.p. daily), row 0 = day 0 baseline, MRI): 67.016 mm3 and 32.276 mm3 and 66.382 mm3
- tumor volume ([3]; Pten-Trp53, CXCR2i, row 1 (weekly MRI)): 53.809 mm3 and 31.739 mm3 and 68.018 mm3
- tumor volume ([3]; Pten-Trp53, CXCR2i, row 2 (weekly MRI, 2 weeks on treatment)): 51.807 mm3 and 39.795 mm3 and 63.477 mm3
- tumor growth ([3]; Pten^pc−/−, Trp53^pc−/− mice, versus vehicle or control IgG): significantly suppressed the tumor growth; also recorded: significant inhibition of tumor growth
- intra-tumoral Gr-1+/CD11b+ cells [4]: decrease of Gr-1+/CD11b+ cells
- tumor volume [5, 6]: 54.248 mm3 and 79.3701 mm3 and 59.2774 mm3
- tumor volume ([5]; CXCR2i, row 1 (weekly MRI)): 44.3115 mm3 and 67.9688 mm3 and 65.0879 mm3
- tumor volume ([5]; CXCR2i, row 2 (weekly MRI)): 41.1865 mm3 and 68.9697 mm3 and 58.6914 mm3
- tumor volume ([5]; CXCR2i, row 3 (weekly MRI, 3 weeks on treatment)): 42.1142 mm3 and 71.3379 mm3 and 66.0889 mm3
- tumor growth ([5]; Pten^pc−/−, Zbtb7a^pc−/− mice, versus vehicle or control IgG): significantly suppressed the tumor growth; also recorded: significant inhibition of tumor growth
